System: Myo5 SH3 domain
Assay: SPOT analysis of cellulose-bound peptides (WISE), Myo5 SH3 domain (Dataset S4)
Type: binding, Saccharomyces cerevisiae
Conditions: for The normalized value in BLU units: Myo5 SH3 domain
[1] = SPOT analysis of membrane-synthesized peptides probed with Myo5 SH3 domain, normalized value
[2] = SPOT analysis of membrane-bound peptides, normalized value (see methods)
[3] = SPOT analysis of cellulose-bound peptides probed with Myo5 SH3 domain, normalized value
[4] = SPOT analysis of cellulose-bound 14-mer yeast proteome peptides, normalized value, mean where the peptide was synthesized more than once

GHKKKNLPKFPKNK
The normalized value in BLU units (SPOT analysis, Myo5 SH3) [1]: 789.2 BLU

KLNKRVLPSKPKKS
The normalized value in BLU units [2]: 918.8 BLU

DPNAYMQPQVPVQM
The normalized value in BLU units (SPOT analysis, Myo5 SH3) [3]: 160.5 BLU

DSVLRQKPDKPRPI
The normalized value in BLU units [2]: 134.9 BLU

TEFSRPIPPTPSGF
The normalized value in BLU units [2]: 163.0 BLU

NDNEKKKPSSPTAA
The normalized value in BLU units (SPOT analysis, Myo5 SH3) [1]: 98.5 BLU

EFPGKKCPRLPHRN
The normalized value in BLU units (SPOT analysis, Myo5 SH3) [1]: 367.5 BLU

QELPMEVPKEPAPA
The normalized value in BLU units (SPOT analysis, Myo5 SH3) [3]: 138.8 BLU

LDPGKNTPGLPEET
The normalized value in BLU units (SPOT analysis, Myo5 SH3) [1]: 155.6 BLU

RYCFKLLPPQPGSK
The normalized value in BLU units [2]: 189.7 BLU

AVGGKWEPGNPIAI
The normalized value in BLU units (SPOT analysis, Myo5 SH3) [1]: 78.4 BLU

AARILANPDHPFSR
The normalized value in BLU units [4]: 165.5 BLU

CNRARYLPQNPDII
The normalized value in BLU units [2]: 243.9 BLU

SELTFIAPTQPVST
The normalized value in BLU units (SPOT analysis, Myo5 SH3) [3]: 110.5 BLU

FARTLKIPNEPSPG
The normalized value in BLU units [4]: 145.7 BLU

FFFFHLSPSIPFWF
The normalized value in BLU units [4]: 6490.2 BLU

ILFERILPILPVES
The normalized value in BLU units [4]: 339.9 BLU

TEEILPTPVQPGGH
The normalized value in BLU units [4]: 121.0 BLU

SENGRLTPGLPRSY
The normalized value in BLU units [4]: 169.8 BLU

MDKFRIPPKSPNIE
The normalized value in BLU units (SPOT analysis, Myo5 SH3) [1]: 222.0 BLU

SPFSLFIPTIPATT
The normalized value in BLU units (SPOT analysis, Myo5 SH3) [3]: 151.7 BLU

ILQILFEPMPPFNS
The normalized value in BLU units [4]: 200.5 BLU

NEKLHETPHLPSPV
The normalized value in BLU units (SPOT analysis, Myo5 SH3) [3]: 109.3 BLU

LNRQKNYPDAPAIF
The normalized value in BLU units (SPOT analysis, Myo5 SH3) [1]: 86.4 BLU

SMDSKRKPSPPSQR
The normalized value in BLU units (SPOT analysis, Myo5 SH3) [1]: 509.7 BLU

KELIYKQPSGPGLV
The normalized value in BLU units (SPOT analysis, Myo5 SH3) [3]: 79.3 BLU

DRKNRAPPQRPRFN
The normalized value in BLU units (SPOT analysis, Myo5 SH3) [1]: 2434.1 BLU

TWKMHLWPVSPPQL
The normalized value in BLU units [4]: 224.0 BLU

EKYGKDQPESPVPE
The normalized value in BLU units [2]: 143.3 BLU

KKNKKKVPLNPLAK
The normalized value in BLU units [4]: 522.6 BLU

ILERKNIPRQPAIR
The normalized value in BLU units [2]: 602.9 BLU

SLFPLKTPISPGTS
The normalized value in BLU units (SPOT analysis, Myo5 SH3) [3]: 239.2 BLU

LDVRRIYPKGPLLV
The normalized value in BLU units (SPOT analysis, Myo5 SH3) [1]: 231.6 BLU

NIFQKQLPKMPKEY
The normalized value in BLU units (SPOT analysis, Myo5 SH3) [1]: 276.2 BLU

SLDNFYNPLGPEDR
The normalized value in BLU units (SPOT analysis, Myo5 SH3) [3]: 142.7 BLU

VLEAYNVPTPPRLE
The normalized value in BLU units [4]: 57.4 BLU

VELHFPKPEDPACI
The normalized value in BLU units [4]: 14.9 BLU

ATGKRKLPGWPSAD
The normalized value in BLU units (SPOT analysis, Myo5 SH3) [1]: 136.1 BLU

TPMDFPEPVGPLAI
The normalized value in BLU units [4]: 175.4 BLU

FEDHHITPCKPGGQ
The normalized value in BLU units [4]: 67.9 BLU

ALYHLSNPNVPKLW
The normalized value in BLU units [4]: 195.7 BLU

RLLFRSLPPHPACL
The normalized value in BLU units [2]: 745.7 BLU

EDLVKKPPFIPSPT
The normalized value in BLU units [2]: 755.9 BLU

RLIKRLKPPAPKEP
The normalized value in BLU units (SPOT analysis, Myo5 SH3) [1]: 403.1 BLU

VFGTYLGPDAPLSK
The normalized value in BLU units [4]: 130.5 BLU

TLEWLLTPYTPGDD
The normalized value in BLU units (SPOT analysis, Myo5 SH3) [3]: 163.5 BLU

LSYLKDLPFVPFLF
The normalized value in BLU units [2]: 213.0 BLU

ALSTKGYPHEPPLL
The normalized value in BLU units (SPOT analysis, Myo5 SH3) [1]: 138.6 BLU

GRSLRKRPTSPSIS
The normalized value in BLU units [2]: 819.6 BLU

KITKKLGPKLPKAS
The normalized value in BLU units (SPOT analysis, Myo5 SH3) [1]: 680.7 BLU

SENYLVKPTIPGTT
The normalized value in BLU units (SPOT analysis, Myo5 SH3) [3]: 61.5 BLU

TTTYKSRPDRPKPV
The normalized value in BLU units [2]: 309.3 BLU

VFYHRPAPKPPVTK
The normalized value in BLU units [2]: 9049.3 BLU

WFDLKGLPRQPEPL
The normalized value in BLU units (SPOT analysis, Myo5 SH3) [1]: 101.7 BLU

HPHPHPHPHTPTHT
The normalized value in BLU units (SPOT analysis, Myo5 SH3) [3]: 238.0 BLU

HEREKALPPIPFTT
The normalized value in BLU units (SPOT analysis, Myo5 SH3) [1]: 214.6 BLU

GWEPFSLPKDPKVV
The normalized value in BLU units (SPOT analysis, Myo5 SH3) [3]: 75.9 BLU

KESKFGTPEKPLSD
The normalized value in BLU units (SPOT analysis, Myo5 SH3) [3]: 249.8 BLU

EEKVKRTPPLPPVP
The normalized value in BLU units (SPOT analysis, Myo5 SH3) [1]: 586.7 BLU

SVDPKNYPDAPLEG
The normalized value in BLU units [4]: 91.1 BLU

TLDEKECPSVPPTV
The normalized value in BLU units [4]: 211.5 BLU

SVSEKTNPSSPSVS
The normalized value in BLU units (SPOT analysis, Myo5 SH3) [1]: 126.7 BLU

HEYNLALPKFPILF
The normalized value in BLU units [4]: 146.8 BLU

KLHEKYFPDLPKEV
The normalized value in BLU units [2]: 110.4 BLU

FESFLRPPSTPDLP
The normalized value in BLU units [4]: 70.2 BLU

QLVTLISPYDPNFK
The normalized value in BLU units [4]: 177.5 BLU

EPATLPLPGTPTLA
The normalized value in BLU units (SPOT analysis, Myo5 SH3) [3]: 61.8 BLU

HFYEYVYPSLPFIE
The normalized value in BLU units (SPOT analysis, Myo5 SH3) [3]: 152.0 BLU

FLHSKKIPEVPQTD
The normalized value in BLU units [2]: 287.9 BLU

PKTGKPLPTQPSSS
The normalized value in BLU units (SPOT analysis, Myo5 SH3) [1]: 193.3 BLU

RFWTRARPIDPNAY
The normalized value in BLU units (SPOT analysis, Myo5 SH3) [1]: 279.1 BLU

LPLSRVQPVQPSQT
The normalized value in BLU units (SPOT analysis, Myo5 SH3) [1]: 122.5 BLU

VQIKRADPHFPHDE
The normalized value in BLU units [2]: 132.0 BLU

KVSSKYDPDNPNKD
The normalized value in BLU units [2]: 434.5 BLU

LEFPKDYPLSPPKL
The normalized value in BLU units [2]: 134.8 BLU

DIPLKQVPENPMPT
The normalized value in BLU units [2]: 62.9 BLU

YCPWKLCPLLPILY
The normalized value in BLU units [2]: 176.0 BLU

NEHGMNAPSVPEFI
The normalized value in BLU units [4]: 344.1 BLU

QPQHLPPPPPPRAQ
The normalized value in BLU units [4]: 76158.3 BLU

LNQSKGQPFQPSPT
The normalized value in BLU units (SPOT analysis, Myo5 SH3) [1]: 254.7 BLU

YGSEKGSPAGPSAV
The normalized value in BLU units [2]: 50.3 BLU

YSYLRLLPWWPSLA
The normalized value in BLU units (SPOT analysis, Myo5 SH3) [1]: 187.6 BLU

VLIKFVIPVYPSLP
The normalized value in BLU units (SPOT analysis, Myo5 SH3) [3]: 561.8 BLU

PIRLRKRPPPPPPV
The normalized value in BLU units [2]: 60274.0 BLU

VLKGFYSPSAPSYD
The normalized value in BLU units (SPOT analysis, Myo5 SH3) [3]: 290.1 BLU

DIPRRYIPITPADL
The normalized value in BLU units [2]: 33.0 BLU

EVLRKYIPGEPEFL
The normalized value in BLU units (SPOT analysis, Myo5 SH3) [1]: 168.7 BLU

APAPPPPPQMPAT
The normalized value in BLU units (SPOT analysis, Myo5 SH3) [3]: 7749 BLU

FLYPYDDPNAPIDE
The normalized value in BLU units (SPOT analysis, Myo5 SH3) [3]: 55.4 BLU

GLLTYKGPKVPYQK
The normalized value in BLU units (SPOT analysis, Myo5 SH3) [3]: 150.1 BLU

VWGPKPVPFQPMDV
The normalized value in BLU units [2]: 96.9 BLU

HFLCLDPPIDPNNL
The normalized value in BLU units [4]: 122.0 BLU

KNPTKSPPPPPSPS
The normalized value in BLU units (SPOT analysis, Myo5 SH3) [1]: 27847.4 BLU

DLLGLSTPQSPTNS
The normalized value in BLU units (SPOT analysis, Myo5 SH3) [3]: 91.9 BLU

ATKRKTIPVYPPVQ
The normalized value in BLU units [2]: 273.7 BLU

LELLLSLPTGPESK
The normalized value in BLU units (SPOT analysis, Myo5 SH3) [3]: 142.9 BLU

MFELLCHPKVPVGM
The normalized value in BLU units (SPOT analysis, Myo5 SH3) [3]: 267.7 BLU

RLFDLVKPKNPKFS
The normalized value in BLU units [4]: 441.1 BLU

DPNQLSTPPTPKSA
The normalized value in BLU units [4]: 166.4 BLU

GEIMFPAPPLPIAN
The normalized value in BLU units (SPOT analysis, Myo5 SH3) [3]: 2774.8 BLU

RGWQRFLPTGPIAH
The normalized value in BLU units (SPOT analysis, Myo5 SH3) [1]: 802.1 BLU

VEVDKKVPVLPMVA
The normalized value in BLU units (SPOT analysis, Myo5 SH3) [1]: 129.9 BLU

KQKKKPTPTRPYNY
The normalized value in BLU units [2]: 516.2 BLU

VCHSKYIPLKPIQD
The normalized value in BLU units [2]: 298.3 BLU

EGTTKVDPIIPVPE
The normalized value in BLU units [4]: 180.1 BLU

SASTMAAPVHPQQQ
The normalized value in BLU units [4]: 164.3 BLU

DENSKWQPSDPFTM
The normalized value in BLU units (SPOT analysis, Myo5 SH3) [1]: 285.2 BLU

RPKRRAPPPVPKKP
The normalized value in BLU units (SPOT analysis, Myo5 SH3) [1]: 67429.7 BLU

YLNNLAEPLIPLSL
The normalized value in BLU units (SPOT analysis, Myo5 SH3) [3]: 222.0 BLU

TKKRKLGPKAPNPL
The normalized value in BLU units [2]: 693.8 BLU

SFTPFNRPSDPSNG
The normalized value in BLU units (SPOT analysis, Myo5 SH3) [3]: 208.5 BLU

FFQLMQSPSLPLLM
The normalized value in BLU units [4]: 829.6 BLU

FEEDKMTPSTPVRS
The normalized value in BLU units (SPOT analysis, Myo5 SH3) [1]: 248.5 BLU

FFPIMSLPVTPVKS
The normalized value in BLU units (SPOT analysis, Myo5 SH3) [3]: 122.3 BLU

HLTDLSPPGTPPTM
The normalized value in BLU units (SPOT analysis, Myo5 SH3) [3]: 260.8 BLU

TYLTRPLPSTPNED
The normalized value in BLU units [4]: 101.0 BLU

ELRDLDIPLVPSPK
The normalized value in BLU units (SPOT analysis, Myo5 SH3) [3]: 75.3 BLU

SENRLRTPLKPLVN
The normalized value in BLU units (SPOT analysis, Myo5 SH3) [3]: 272.3 BLU

VPDQLLTPLQPYTI
The normalized value in BLU units (SPOT analysis, Myo5 SH3) [3]: 168.3 BLU

Source: PMC314469, “Protein Interaction Networks by Proteome Peptide Scanning” (PLoS Biology, 2004)
